Test systems include A498; A549; COLO 205; DU-145; HOP-92; MCF7; MDA-MB-231; MDA-MB-435; MOLT-4; NCI-H226; SF-295; SF-539; SK-MEL-2; SNB-19; SNB-75; T47D; TK-10; U-251; UACC-257; UO-31.
What all share (assay): NCI-60 cell line screen, 48 h

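Cultured in 96-well plates, cells were exposed to test compound for 48 hours across five concentrations. GI50 is the concentration that inhibits growth by half.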 The source made the active and inactive calls. Rule as the data show it: active = GI50 up to about 1.1 µM and inactive = higher.

As to `NC(=O)NN=C1Cc2ccccc2C1`, the GI50 in the experiment on A498, with A549, in the experiment on COLO 205, in the experiment on DU-145, in the experiment with HOP-92 and with MCF7 was > 100 µM (inactive) each time. Further, the GI50 with MDA-MB-231, with MDA-MB-435, in the experiment with MOLT-4, with NCI-H226, in the experiment on SF-295 and in the experiment with SF-539 was > 100 µM (inactive) in each case. Also, the GI50 in the experiment on SK-MEL-2, in the experiment on SNB-19, with SNB-75, with T47D, in the experiment on TK-10 and in the experiment with U-251 was > 100 µM (inactive) in each case. The GI50 in the experiment with UACC-257 and in the experiment with UO-31 was > 100 µM (inactive) throughout.
Take `O=C1C(NCCF)=C(Cl)C(=O)c2ncccc21`: the GI50 in the experiment on A498 was 1.63 µM (inactive); in the experiment with A549, 1.73 µM (inactive); in the experiment with DU-145, 1.11 µM (active); with HOP-92, 2.08 µM (inactive); with MCF7, 0.716 µM (active); in the experiment with MDA-MB-231, 2.19 µM (inactive). Besides, the GI50 was 0.188 µM (active) in the experiment on MDA-MB-435; 1.22 µM (inactive) with MOLT-4; 1.71 µM (inactive) with NCI-H226; 1.49 µM (inactive) with SF-295; 1 µM (active) in the experiment on SF-539; 0.179 µM (active) in the experiment with SK-MEL-2. Further, the GI50 in the experiment on SNB-19 is 1.39 µM (inactive); in the experiment with SNB-75, 0.617 µM (active); in the experiment with T47D, 2.05 µM (inactive); in the experiment with TK-10, 1.81 µM (inactive); with U-251, 0.689 µM (active); in the experiment on UACC-257 it was 1.4 µM (inactive).
As for `CCOC(=O)CN1C(=O)c2ccc(NC(=O)C(=O)O)cc2S1(=O)=O`, the GI50 with A498, in the experiment on A549, in the experiment on COLO 205, in the experiment on DU-145, with HOP-92 and in the experiment on MCF7 was > 100 µM (inactive) throughout. The GI50 in the experiment on MDA-MB-231, in the experiment on MDA-MB-435, with MOLT-4, in the experiment on NCI-H226, in the experiment with SF-295 and in the experiment with SK-MEL-2 was > 100 µM (inactive) in each case. Also, the GI50 in the experiment on SNB-19, with T47D, in the experiment on TK-10, with U-251, in the experiment on UACC-257 and in the experiment with UO-31 was > 100 µM (inactive) in each case.
Take `CN1CCc2c(sc3ncn(C)c(=N)c23)C1`: the GI50 in the experiment with A498, in the experiment on A549, with COLO 205, in the experiment on DU-145, in the experiment with HOP-92 and with MCF7 was > 100 µM (inactive) throughout. Further, the GI50 in the experiment with MDA-MB-231, in the experiment on MDA-MB-435, in the experiment on MOLT-4, in the experiment on NCI-H226, with SF-295 and in the experiment on SF-539 was > 100 µM (inactive) each time. Moreover, the GI50 with SK-MEL-2, with SNB-19, with SNB-75, in the experiment with T47D, in the experiment on TK-10 and with U-251 was > 100 µM (inactive) in each case. Further, in the experiment with UACC-257, the GI50 is > 100 µM (inactive).
As to `COc1cc(C(c2cccc3ccccc23)N2C(=O)CCC2C(=O)NCc2ccccc2)cc(OC)c1OC` (stereo not drawn), the GI50 in the experiment with A498, in the experiment on A549, with COLO 205, with DU-145, in the experiment with HOP-92 and with MCF7 was > 100 µM (inactive) each time. Also, the GI50 with MDA-MB-231 is > 100 µM (inactive); in the experiment with MDA-MB-435 it was > 100 µM (inactive); in the experiment with MOLT-4, 78 µM (inactive); in the experiment on NCI-H226, > 100 µM (inactive); in the experiment with SF-295 it was > 100 µM (inactive); in the experiment on SF-539 it was > 100 µM (inactive). For the same compound, the GI50 with SK-MEL-2, in the experiment with SNB-19, with T47D, in the experiment with U-251, in the experiment on UACC-257 and in the experiment with UO-31 was > 100 µM (inactive) each time.
Consider `NS(=O)(=O)c1ccc(NC(=O)c2cc([N+](=O)[O-])cc([N+](=O)[O-])c2)cc1`, for which the GI50 is 65.2 µM (inactive) in the experiment with A498; 42.6 µM (inactive) in the experiment on A549; 19.7 µM (inactive) in the experiment on COLO 205; 59.7 µM (inactive) with DU-145; 21.7 µM (inactive) with HOP-92; 19.5 µM (inactive) in the experiment on MCF7. Moreover, the GI50 with MDA-MB-231 is 39.4 µM (inactive); in the experiment with MDA-MB-435 it was 17.7 µM (inactive); in the experiment on MOLT-4, 68.9 µM (inactive); in the experiment with NCI-H226, 46.5 µM (inactive); with SF-539, 30.7 µM (inactive); in the experiment on SK-MEL-2, 34.1 µM (inactive). Moreover, the GI50 was 45.9 µM (inactive) in the experiment with SNB-19; > 100 µM (inactive) with SNB-75; 18.8 µM (inactive) with T47D; > 100 µM (inactive) in the experiment with TK-10; 37.8 µM (inactive) in the experiment on U-251; 12.8 µM (inactive) in the experiment with UACC-257. For the same compound, the GI50 with UO-31 is 65.6 µM (inactive).
As for `CCOC(=O)c1nc2ccccc2nc1Oc1cc(OC)cc(OC)c1`, the GI50 with A498 is > 100 µM (inactive); with A549, > 100 µM (inactive); with COLO 205, 81.5 µM (inactive); in the experiment on DU-145, > 100 µM (inactive); in the experiment with HOP-92, 6.81 µM (inactive); with MCF7, > 100 µM (inactive). In addition, the GI50 in the experiment with MDA-MB-231 is > 100 µM (inactive); in the experiment on MDA-MB-435 it was > 100 µM (inactive); with MOLT-4, > 100 µM (inactive); in the experiment on NCI-H226, > 100 µM (inactive); in the experiment on SF-295, > 100 µM (inactive); in the experiment with SF-539, 61.7 µM (inactive). In addition, the GI50 in the experiment on SK-MEL-2 is > 100 µM (inactive); with SNB-19, > 100 µM (inactive); with T47D, > 100 µM (inactive); in the experiment with TK-10 it was > 100 µM (inactive); with U-251, 78.3 µM (inactive); in the experiment with UACC-257 it was > 100 µM (inactive). Further, in the experiment on UO-31, the GI50 is > 100 µM (inactive).
Regarding `CC(=O)OCC1OC(O[C@@H]2c3c(O)c4c(c(O)c3C3=C(NN(c5ccc([N+](=O)[O-])cc5[N+](=O)[O-])[Se]3=O)[C@@]2(C)O)C(=O)c2ccccc2C4=O)C(OC(C)=O)C(OC(C)=O)C1OC(C)=O` (stereo partly drawn), the GI50 was 0.288 µM (active) with A498; 0.314 µM (active) in the experiment on A549; 0.175 µM (active) with COLO 205; 0.365 µM (active) in the experiment on DU-145; 0.451 µM (active) in the experiment with HOP-92; 0.207 µM (active) with MCF7. Also, the GI50 with MDA-MB-231 was 0.346 µM (active); with MDA-MB-435 it was 0.145 µM (active); with MOLT-4, 0.0345 µM (active); in the experiment with NCI-H226 it was 0.31 µM (active); in the experiment on SF-295 it was 0.21 µM (active); in the experiment with SK-MEL-2, 0.212 µM (active). Further, the GI50 in the experiment on SNB-19 was 0.323 µM (active); in the experiment on SNB-75, 0.394 µM (active); with T47D it was 0.286 µM (active); in the experiment with TK-10 it was 0.497 µM (active); in the experiment with U-251, 0.14 µM (active); with UACC-257 it was 0.376 µM (active). Moreover, the GI50 in the experiment with UO-31 was 0.239 µM (active).
`CC(=O)c1nc2ccccc2n1CC(=O)c1ccc(Cl)cc1`: the GI50 in the experiment on A498 was 54.3 µM (inactive); in the experiment on A549, 3.17 µM (inactive); in the experiment with COLO 205, 20.9 µM (inactive); in the experiment on DU-145, 13.4 µM (inactive); in the experiment with HOP-92 it was 1.03 µM (active); in the experiment with MCF7, 3.73 µM (inactive). Also, the GI50 in the experiment on MDA-MB-231 was 2.79 µM (inactive); with MDA-MB-435 it was 2.09 µM (inactive); in the experiment on MOLT-4 it was 4.05 µM (inactive); in the experiment on NCI-H226 it was 12 µM (inactive); in the experiment on SF-295 it was 13.4 µM (inactive); in the experiment with SF-539, 7.36 µM (inactive). In addition, the GI50 is 14.7 µM (inactive) with SK-MEL-2; 7.4 µM (inactive) in the experiment on SNB-19; 2.45 µM (inactive) in the experiment on T47D; 61.2 µM (inactive) in the experiment on TK-10; 2.99 µM (inactive) with U-251; 5.68 µM (inactive) in the experiment with UACC-257. Moreover, the GI50 in the experiment with UO-31 is 9.25 µM (inactive).
In the case of `CCN(CC)CCC(=O)c1ccc(Cl)c(Cl)c1`, the GI50 was 18.5 µM (inactive) in the experiment on A498; > 100 µM (inactive) in the experiment with A549; 27.2 µM (inactive) in the experiment with COLO 205; 67.1 µM (inactive) with DU-145; 14.8 µM (inactive) in the experiment with HOP-92; 12.8 µM (inactive) in the experiment on MCF7. The GI50 in the experiment with MDA-MB-231 is > 10 µM (inactive); in the experiment with MDA-MB-435 it was 17.1 µM (inactive); with MOLT-4 it was 19.9 µM (inactive); in the experiment on NCI-H226, > 100 µM (inactive); in the experiment with SF-295, > 100 µM (inactive); with SF-539, > 10 µM (inactive). The GI50 in the experiment with SNB-19 is > 100 µM (inactive); in the experiment on SNB-75 it was 27.7 µM (inactive); with T47D it was 18.6 µM (inactive); in the experiment with TK-10 it was > 10 µM (inactive); in the experiment on U-251, 36.6 µM (inactive); in the experiment on UACC-257, 46.7 µM (inactive). The GI50 with UO-31 was 41.3 µM (inactive).
